The values below come from US20080069869A1, “Formulations and methods for modulating satiety” (priority 2004, published 2008).

Like-named read-outs stand apart in the source and are kept apart here.

The test system of series [1] is pancreatic amylase secretion. The following applies: Crawley and Corwin; cited from earlier work.
A short description of series [2]: Pharmacokinetic study: plasma CCK-8 levels after one oral enteric-coated capsule (Example 3). In kind it is in vivo, human. The protocol: Secondarily, it was desired to ascertain the time it would take to reach peak plasma levels. Each individual ingested the capsule in the fasting state (not having eaten for at least 8 hours). Blood was then drawn every 10 minutes for one hour. […] Plasma was drawn off from each tube and frozen. The frozen plasma was sent to Mt. Sinai Hospital in Canada for measurement of CCK-8 levels.

For series [3] the following is noted: in vivo; cited from earlier work.
A further series concerns the target T1, CCKA receptors (Homo sapiens, UniProt P32238).
T1 sequence (P32238 1-428): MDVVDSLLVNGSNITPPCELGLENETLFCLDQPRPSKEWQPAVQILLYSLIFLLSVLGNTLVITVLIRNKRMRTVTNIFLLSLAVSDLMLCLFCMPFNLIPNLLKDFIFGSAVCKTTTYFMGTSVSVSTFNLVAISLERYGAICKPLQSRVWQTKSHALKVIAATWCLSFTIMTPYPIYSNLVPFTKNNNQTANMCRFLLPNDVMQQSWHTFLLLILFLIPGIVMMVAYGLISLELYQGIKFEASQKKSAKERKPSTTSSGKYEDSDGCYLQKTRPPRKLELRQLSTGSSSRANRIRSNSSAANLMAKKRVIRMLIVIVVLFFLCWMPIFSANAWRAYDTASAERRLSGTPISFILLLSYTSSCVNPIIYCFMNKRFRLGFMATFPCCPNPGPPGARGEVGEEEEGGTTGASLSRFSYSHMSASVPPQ
To be noted: de Montigny 1989; cited from earlier work.

The conditions of series [4]: cited from earlier work.

For “Asp-Tyr(SO3H)-Met-Gly-Trp-Met-Asp-Phe-NH2 [CCK-8]”, the “more potent than unsulfated CCK-8 or CCK-4 in stimulating pancreatic amylase secretion” value in series [1] was “approximately 1000 fold”. Further, the “CCK-8 level (plasma)” value is on record as 3.268 picomoles/liter (pm/L) in series [2] (Individual #1, 10 minutes post-ingestion, one enteric-coated capsule with 9.2 micrograms CCK-8 and an enzyme inhibitor, fasting); “detected no CCK-8” in series [2] (Individual #1, remaining 5 measurements (every 10 minutes up to one hour), 9.2 micrograms capsule with enzyme inhibitor); 0.7625 pm/L in series [2] (Individual #2, 10 minutes post-ingestion, 9.2 micrograms capsule with enzyme inhibitor, fasting); 3.326 pm/L in series [2] (Individual #2, 20 minutes, 9.2 micrograms capsule with enzyme inhibitor, fasting); “detected no CCK-8” in series [2] (Individual #2, next 4 measurements (30-60 minutes)); 0.0 pm/L in series [2] (Individual #3 (BMI 24), 10 minutes post-ingestion, 9.2 micrograms capsule with enzyme inhibitor, fasting). Further, the “CCK-8 level (plasma)” value in series [2] (Individual #3 (BMI 24), 20 minutes, 9.2 micrograms capsule with enzyme inhibitor, fasting) is given as 4.375 pm/L; in series [2] (Individual #3, next 4 measurements (30-60 minutes)), “detected no CCK-8”. For the same compound, the oral bio-availability result in series [3] is “less than 1%”.

Take “CCK-4: the tetrapeptide, CCK-4 (CCK30-33)”: the “lower affinity for CCKA receptors than the sulfated form of CCK-8” value with CCKA receptors is 10,000 fold.

For the compound `O[C@H](CS)[C@H](O)CS` (racemic) [dithiothreitol], the “increase in absorption and biliary recovery of a tripeptide over control rats” value in series [4] (ileum) is reported as “four-fold”; in series [4] (proximal colon), 70 fold.
